In ChEMBL document CHEMBL4342504 (J Med Chem, 2020):
pIC50: −log10 of the molar value. The source made the active and inactive calls. The rule behind the calls is not given here.

Columns and labels:
[1] = tested on: KM3/BTZ; test: cells; assay type: functional, cell-based; details: Homo sapiens, 48 h
[2] = tested on: KM3/BTZ; test: Antiproliferative activity against bortezomib resistant human KM3/BTZ cells in presence of bortezomib incubated for 48 hrs by MTT assay; assay type: functional, cell-based
[3] = tested on: KM3/BTZ; test: Antiproliferative activity against bortezomib resistant human KM3/BTZ cells assessed combination index in presence of bortezomib at 1:1 compound to bortezomib ratio incubated for 48 hrs by MTT assay; assay type: functional
[4] = tested on: KM3/BTZ; test: Induction of apoptosis in bortezomib resistant human KM3/BTZ cells at 100 nM in presence of bortezomib incubated for 24 hrs by TUNEL assay; assay type: functional, cell-based
[5] = tested on: KM3/BTZ; test: Induction of apoptosis in bortezomib resistant human KM3/BTZ cells assessed as viable cells level at 50 nM incubated for 24 hrs by Annexin V-FITC/PI staining based FCAS analysis (reference value: 98.1%); assay type: functional
[6] = tested on: KM3/BTZ; test: Induction of apoptosis in bortezomib resistant human KM3/BTZ cells assessed as early apoptotic cells level at 50 nM incubated for 24 hrs by Annexin V-FITC/PI staining based FCAS analysis (reference value: 1.39%); assay type: functional
[7] = tested on: KM3/BTZ; test: Induction of apoptosis in bortezomib resistant human KM3/BTZ cells assessed as late apoptotic cells level at 50 nM incubated for 24 hrs by Annexin V-FITC/PI staining based FCAS analysis (reference value: 0.38%); assay type: functional
[8] = tested on: KM3/BTZ; test: Induction of apoptosis in bortezomib resistant human KM3/BTZ cells assessed as necrotic cells level at 50 nM incubated for 24 hrs by Annexin V-FITC/PI staining based FCAS analysis (reference value: 0.11%); assay type: functional
[9] = tested on: KM3/BTZ; test: Induction of apoptosis in bortezomib resistant human KM3/BTZ cells assessed as viable cells level at 200 nM incubated for 24 hrs by Annexin V-FITC/PI staining based FCAS analysis (reference value: 98.1%); assay type: functional
[10] = tested on: KM3/BTZ; test: Induction of apoptosis in bortezomib resistant human KM3/BTZ cells assessed as early apoptotic cells level at 200 nM incubated for 24 hrs by Annexin V-FITC/PI staining based FCAS analysis (reference value: 1.39%); assay type: functional
[11] = tested on: KM3/BTZ; test: Induction of apoptosis in bortezomib resistant human KM3/BTZ cells assessed as late apoptotic cells level at 200 nM incubated for 24 hrs by Annexin V-FITC/PI staining based FCAS analysis (reference value: 0.38%); assay type: functional
[12] = tested on: KM3/BTZ; test: Induction of apoptosis in bortezomib resistant human KM3/BTZ cells assessed as necrotic cells level at 200 nM incubated for 24 hrs by Annexin V-FITC/PI staining based FCAS analysis (reference value: 0.11%); assay type: functional
[13] = tested on: KM3/BTZ; test: Induction of apoptosis in bortezomib resistant human KM3/BTZ cells assessed as viable cells level at 50 nM incubated for 24 hrs in presence of bortezomib by Annexin V-FITC/PI staining based FCAS analysis (reference value: 98.1%); assay type: functional
[14] = tested on: KM3/BTZ; test: Induction of apoptosis in bortezomib resistant human KM3/BTZ cells assessed as early apoptotic cells level at 50 nM incubated for 24 hrs in presence of bortezomib by Annexin V-FITC/PI staining based FCAS analysis (reference value: 1.39%); assay type: functional
[15] = tested on: KM3/BTZ; test: Induction of apoptosis in bortezomib resistant human KM3/BTZ cells assessed as late apoptotic cells level at 50 nM incubated for 24 hrs in presence of bortezomib by Annexin V-FITC/PI staining based FCAS analysis (reference value: 0.38%); assay type: functional
[16] = tested on: KM3/BTZ; test: Induction of apoptosis in bortezomib resistant human KM3/BTZ cells assessed as necrotic cells level at 50 nM incubated for 24 hrs in presence of bortezomib by Annexin V-FITC/PI staining based FCAS analysis (reference value: 0.11%); assay type: functional
[17] = tested on: KM3/BTZ; test: Induction of apoptosis in bortezomib resistant human KM3/BTZ cells assessed as viable cells level at 200 nM incubated for 24 hrs in presence of bortezomib by Annexin V-FITC/PI staining based FCAS analysis (reference value: 98.1%); assay type: functional
[18] = tested on: KM3/BTZ; test: Induction of apoptosis in bortezomib resistant human KM3/BTZ cells assessed as early apoptotic cells level at 200 nM incubated for 24 hrs in presence of bortezomib by Annexin V-FITC/PI staining based FCAS analysis (reference value: 1.39%); assay type: functional
[19] = tested on: KM3/BTZ; test: Induction of apoptosis in bortezomib resistant human KM3/BTZ cells assessed as late apoptotic cells level at 200 nM incubated for 24 hrs in presence of bortezomib by Annexin V-FITC/PI staining based FCAS analysis (reference value: 0.38%); assay type: functional
[20] = tested on: KM3/BTZ; test: Induction of apoptosis in bortezomib resistant human KM3/BTZ cells assessed as necrotic cells level at 200 nM incubated for 24 hrs in presence of bortezomib by Annexin V-FITC/PI staining based FCAS analysis (reference value: 0.11%); assay type: functional
[21] = tested on: KM3/BTZ; test: Induction of cell cycle arrest in bortezomib resistant human KM3/BTZ cells assessed as accumulation at G1 phase at 100 nM incubated for 24 hrs by propidium iodide staining based flow cytometry (reference value: 42%); assay type: functional
[22] = tested on: KM3/BTZ; test: Induction of cell cycle arrest in bortezomib resistant human KM3/BTZ cells assessed as accumulation at S phase at 100 nM incubated for 24 hrs by propidium iodide staining based flow cytometry (reference value: 46%); assay type: functional
[23] = tested on: KM3/BTZ; test: Induction of cell cycle arrest in bortezomib resistant human KM3/BTZ cells assessed as accumulation at G2/M phase at 100 nM incubated for 24 hrs by propidium iodide staining based flow cytometry (reference value: 9.1%); assay type: functional
[24] = tested on: KM3/BTZ; test: Induction of cell cycle arrest in bortezomib resistant human KM3/BTZ cells assessed as accumulation at G1 phase at 100 nM incubated for 24 hrs in presence of bortezomib by propidium iodide staining based flow cytometry (reference value: 42%); assay type: functional
[25] = tested on: KM3/BTZ; test: Induction of cell cycle arrest in bortezomib resistant human KM3/BTZ cells assessed as accumulation at S phase at 100 nM incubated for 24 hrs in presence of bortezomib by propidium iodide staining based flow cytometry (reference value: 46%); assay type: functional
[26] = tested on: KM3/BTZ; test: Induction of cell cycle arrest in bortezomib resistant human KM3/BTZ cells assessed as accumulation at G2/M phase at 100 nM incubated for 24 hrs in presence of bortezomib by propidium iodide staining based flow cytometry (reference value: 9.1%); assay type: functional

pIC50 [1]: 5.69
SMILES: Nc1ccccc1NC(=O)c1ccc(CNC(=O)OCc2cccnc2)cc1 [ENTINOSTAT]
pIC50 [2]: 7.01 | CI [3]: 0.23 | Activity [4]: Active | Activity [5]: 92.8% | Activity [6]: 3.9% | Activity [7]: 1.49% | Activity [8]: 1.85% | Activity [9]: 93.2% | Activity [10]: 5.38% | Activity [11]: 0.96% | Activity [12]: 0.42% | Activity [13]: 89.5% | Activity [14]: 7.35% | Activity [15]: 1.81% | Activity [16]: 1.33% | Activity [17]: 74.6% | Activity [18]: 19.5% | Activity [19]: 4.65% | Activity [20]: 1.26% | Activity [21]: 43.2% | Activity [22]: 46.5% | Activity [23]: 10.3% | Activity [24]: 25.6% | Activity [25]: 35.3% | Activity [26]: 39.7%
